{"source": "patent US9616129B2", "about": "“Compositions and methods for potentiating immune response, enhancing immunotherapy, and increasing vaccine potency” (Nitor Therapeutics, priority 2013, dated 2017)", "key": {"[1]": {"system": "interferon-a (IFN-a)", "settings": "healthy volunteers; oral; cited from earlier work"}, "[2]": {"system": "HCV", "settings": "chronically HCV infected patients; cited from earlier work"}, "[3]": {"system": "B16 tumors", "experiment": "Syngeneic mouse melanoma model", "assay_type": "in vivo, C57BL/6 mice", "settings": "cyclophosphamide 100 mg/kg IP single dose", "procedure": "Cancer cells were injected subcutaneously in right flank of each mouse, 1×10^4 cells in 0.1 ml PBS with 20% Matrigel. Treatment with the NTR001 was initiated on day 6 after injection of tumor cells. Tumor volume and survival were recorded every 3-4 days."}, "[4]": {"molecular_target": "T1, human TLR2 (Homo sapiens, UniProt O60603)", "T1 construct": "expressed in transfected cells; host or cells: HEK293", "T1 sequence (O60603 21-784)": "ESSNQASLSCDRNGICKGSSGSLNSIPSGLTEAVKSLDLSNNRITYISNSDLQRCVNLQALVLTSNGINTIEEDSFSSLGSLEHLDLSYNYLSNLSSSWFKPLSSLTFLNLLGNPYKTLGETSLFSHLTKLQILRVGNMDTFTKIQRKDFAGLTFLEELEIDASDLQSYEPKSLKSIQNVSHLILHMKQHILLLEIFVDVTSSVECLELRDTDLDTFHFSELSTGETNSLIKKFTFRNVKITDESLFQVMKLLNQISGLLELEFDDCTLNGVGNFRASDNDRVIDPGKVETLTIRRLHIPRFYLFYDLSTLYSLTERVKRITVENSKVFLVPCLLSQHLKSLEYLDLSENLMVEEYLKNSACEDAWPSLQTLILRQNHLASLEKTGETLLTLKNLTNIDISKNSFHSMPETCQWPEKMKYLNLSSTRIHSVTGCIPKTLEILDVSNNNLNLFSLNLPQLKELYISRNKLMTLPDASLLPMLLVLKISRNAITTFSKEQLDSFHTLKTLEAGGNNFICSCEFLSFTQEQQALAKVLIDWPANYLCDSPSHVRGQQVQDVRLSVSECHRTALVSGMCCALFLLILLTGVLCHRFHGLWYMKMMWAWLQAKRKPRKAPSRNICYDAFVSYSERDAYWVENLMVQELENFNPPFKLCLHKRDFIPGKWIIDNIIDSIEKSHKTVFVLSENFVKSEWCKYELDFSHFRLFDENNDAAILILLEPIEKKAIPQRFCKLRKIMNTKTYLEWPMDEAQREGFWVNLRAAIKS", "experiment": "TLR ligand screening, NF-κB SEAP reporter in HEK293 cells expressing TLR2", "assay_type": "cell-based", "settings": "one concentration: Guanosine 100 uM, NTR001 10 uM, Inosine 100 uM; FIG. 2", "procedure": "(§1) TLR stimulation is tested by assessing NF-κB activation in HEK293 cells expressing a given TLR. The Secreted Embryonic Alkaline Phosphatase (SEAP) reporter is under the control of a promoter inducible by the transcription factor NF-κB. This reporter gene allows the monitoring of signaling through the TLR, based on the activation of NF-κB. The compounds are evaluated at one concentration and compared to control ligands. This step is performed in triplicate."}, "[5]": {"molecular_target": "T2, human TLR4 (Homo sapiens, UniProt O00206)", "T2 construct": "expressed in transfected cells; host or cells: HEK293", "T2 sequence (O00206 24-839)": "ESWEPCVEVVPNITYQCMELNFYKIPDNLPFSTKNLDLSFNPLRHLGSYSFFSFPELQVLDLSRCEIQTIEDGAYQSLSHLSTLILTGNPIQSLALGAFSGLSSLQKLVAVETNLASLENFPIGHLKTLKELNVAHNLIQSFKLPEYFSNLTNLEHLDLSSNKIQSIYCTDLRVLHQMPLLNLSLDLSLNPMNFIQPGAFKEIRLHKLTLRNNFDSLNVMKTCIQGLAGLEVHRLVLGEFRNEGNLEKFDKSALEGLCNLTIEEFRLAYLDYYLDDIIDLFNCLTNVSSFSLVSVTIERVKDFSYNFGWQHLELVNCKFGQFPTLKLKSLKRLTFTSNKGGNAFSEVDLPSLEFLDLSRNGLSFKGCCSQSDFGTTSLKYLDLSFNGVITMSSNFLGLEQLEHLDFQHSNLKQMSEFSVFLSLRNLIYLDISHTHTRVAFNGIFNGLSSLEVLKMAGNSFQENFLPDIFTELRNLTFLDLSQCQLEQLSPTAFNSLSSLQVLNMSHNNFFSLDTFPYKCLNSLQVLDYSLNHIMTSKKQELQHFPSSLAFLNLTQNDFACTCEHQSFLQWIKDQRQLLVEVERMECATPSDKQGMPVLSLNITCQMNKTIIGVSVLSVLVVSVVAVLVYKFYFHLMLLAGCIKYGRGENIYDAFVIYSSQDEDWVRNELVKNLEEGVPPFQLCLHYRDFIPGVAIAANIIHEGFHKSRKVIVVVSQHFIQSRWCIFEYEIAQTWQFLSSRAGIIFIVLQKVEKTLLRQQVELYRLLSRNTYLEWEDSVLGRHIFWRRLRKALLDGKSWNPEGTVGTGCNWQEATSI", "T2 sequence (Q9Y6Y9 17-160 partner limits assumed)": "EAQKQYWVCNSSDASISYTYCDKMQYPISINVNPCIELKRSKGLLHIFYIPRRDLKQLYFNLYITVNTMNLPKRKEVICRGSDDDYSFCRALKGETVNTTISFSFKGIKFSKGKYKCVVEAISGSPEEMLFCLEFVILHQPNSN", "experiment": "TLR ligand screening, NF-κB SEAP reporter in HEK293 cells expressing TLR4", "assay_type": "cell-based", "settings": "one concentration: Guanosine 100 uM, NTR001 10 uM, Inosine 100 uM; FIG. 2", "procedure": "as §1"}, "[6]": {"system": "tetanus toxoid vaccine", "experiment": "Tetanus toxoid vaccine efficacy study (adjuvant) in mice", "assay_type": "in vivo", "settings": "compared to vehicle treated group", "procedure": "Tetanus toxoid (TT) was used to vaccinate mice thrice, two weeks apart. Mice were treated by oral administration of compounds NTR001 and NTR002 and serum was collected at various time points for antibody titer and interferon-g analysis. Mice in Groups 2-6 (Table 2) are vaccinated subcutaneously with 0.1 ml tetanus toxoid vaccine on DAYS 0, 14 and 28. Mice in Group 1 (Table 1) received no vaccine. Antibody titers for DAYS 38 are determined by ELISA using tetanus toxoid coated microtiter plates and anti-mouse conjugate. Sera from DAY 30 are assayed by ELISA for interferon-g."}, "[7]": {"system": "L. monocytogenes (ATCC Strain35152, hemolytic substrain)", "experiment": "Mouse model of L. monocytogenes infection", "assay_type": "in vivo", "settings": "Balb/c mice infected i.v. with 1×10^6 CFU; treatments per Table 3; FIGS. 7 and 9"}}, "data": [{"compound": "CC(=O)O[C@@H]1C[C@@H](CO)O[C@H]1n1c(=O)sc2cnc(N)nc21", "note": "[ANA773]", "values": [{"measurement": "induction of endogenous interferon-a (IFN-a)", "setting": "[1]", "value": "induce endogenous interferon-a (IFN-a) of multiple subtypes"}, {"measurement": "HCV RNA", "setting": "[2]", "value": "dose-dependent reduction"}]}, {"compound": "O=P1(N(CCCl)CCCl)NCCCO1", "note": "(centres unmarked) [Cycicophosphamide, Cyclophosphamide]", "values": [{"measurement": "survival", "setting": "[3]", "value": 30, "unit": "%"}]}, {"compound": "Nc1nc2c(ncn2[C@@H]2O[C@H](CO)[C@@H](O)[C@H]2O)c(=O)[nH]1", "note": "[Guanosine]", "values": [{"measurement": "stimulatory effect on human TLR2 (NF-κB activation)", "setting": "[4]", "value": "significant stimulatory effect"}, {"measurement": "stimulatory effect on human TLR4 (NF-κB activation)", "setting": "[5]", "value": "significant stimulatory effect"}]}, {"compound": "O=c1[nH]cnc2c(CN3C[C@H](CO)[C@@H](O)C3)c[nH]c12", "note": "[NTR002, 1,5-dihydro-7-[[(3R,4R)-3-hydroxy-4-(hydroxymethyl)pyrrolidin-1-yl]methyl]-4H-pyrrolo[3,2-d]pyrimidin-4-one]", "values": [{"measurement": "serum interferon-g", "setting": "[6]; day 30, ELISA, high dose group 60 mg/kg p.o., FIG. 4", "value": "elevated"}, {"measurement": "serum tetanus toxoid antibody titers", "setting": "[6]; day 38, ELISA, p.o. 30 mg/kg (6 days of treatment) and 60 mg/kg (3 days of treatment), FIG. 3", "value": "significantly elevated"}, {"measurement": "weight loss", "setting": "[7]", "value": "significant decrease"}]}]}
